Measurements reported in patent US9765037B2, “Compositions and methods for treating toxoplasmosis, cryptosporidiosis, and other apicomplexan protozoan related diseases” (University of Washington Through its Center for …, priority 2010, dated 2017).
Converted amounts (≈) assume the structure as drawn. Where two headings read alike, the source gives them in different places.

Columns and labels:
[1] = system: human fibroblast; assay: Human fibroblast replication / cytotoxicity (Alamar blue); type: cell-based
[2] = biological target: PfCDPK4 (Plasmodium falciparum (isolate 3D7), UniProt Q8IBS5); assay: biochemical
[3] = biological target: PfCDPK1 (Plasmodium falciparum (isolate 3D7), UniProt P62344); assay: biochemical
[4] = system: glioma derived (SF539); assay: Growth inhibition of human cell line SF539; settings: 10 μM
[5] = Solubility in buffers of various pH; type: physicochemical; settings: buffer
[6] = system: human lymphocyte (CRL8155); assay: Growth inhibition of human cell line CRL8155
[7] = system: colorectal carcinoma (HC 2998); assay: Growth inhibition of human cell line HC 2998; settings: 10 μM
[8] = system: human promyelocytic leukemia (HL-60); assay: Growth inhibition of human cell line HL-60
[9] = biological target: CpCDPK1 (Cryptosporidium parvum (strain Iowa II), UniProt A3FQ16); assay: biochemical; type: biochemical
[10] = biological target: HckKD (Homo sapiens (Human), UniProt P08631); assay: Tyrosine kinase IC50, HckKD; type: biochemical; settings: Table 9
[11] = Blood levels after oral gavage dosing of mice (LC-MS); settings: mouse, in vivo, po
[12] = biological target: AblKD (Homo sapiens (Human), UniProt P00519); assay: Tyrosine kinase IC50, AblKD; type: biochemical; settings: Table 9
[13] = pH 6.5, aqueous buffer, read-out: Experimental Solubility pH 6.5

HckKD, sequence (P08631 262-515): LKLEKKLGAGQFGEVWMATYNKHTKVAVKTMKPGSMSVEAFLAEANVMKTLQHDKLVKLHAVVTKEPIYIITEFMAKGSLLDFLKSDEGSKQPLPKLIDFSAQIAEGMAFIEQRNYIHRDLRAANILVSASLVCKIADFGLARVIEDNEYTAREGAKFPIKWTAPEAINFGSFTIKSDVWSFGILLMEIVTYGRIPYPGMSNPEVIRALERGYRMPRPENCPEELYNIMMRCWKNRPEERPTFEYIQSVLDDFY
CpCDPK1, sequence (A3FQ16 1-538): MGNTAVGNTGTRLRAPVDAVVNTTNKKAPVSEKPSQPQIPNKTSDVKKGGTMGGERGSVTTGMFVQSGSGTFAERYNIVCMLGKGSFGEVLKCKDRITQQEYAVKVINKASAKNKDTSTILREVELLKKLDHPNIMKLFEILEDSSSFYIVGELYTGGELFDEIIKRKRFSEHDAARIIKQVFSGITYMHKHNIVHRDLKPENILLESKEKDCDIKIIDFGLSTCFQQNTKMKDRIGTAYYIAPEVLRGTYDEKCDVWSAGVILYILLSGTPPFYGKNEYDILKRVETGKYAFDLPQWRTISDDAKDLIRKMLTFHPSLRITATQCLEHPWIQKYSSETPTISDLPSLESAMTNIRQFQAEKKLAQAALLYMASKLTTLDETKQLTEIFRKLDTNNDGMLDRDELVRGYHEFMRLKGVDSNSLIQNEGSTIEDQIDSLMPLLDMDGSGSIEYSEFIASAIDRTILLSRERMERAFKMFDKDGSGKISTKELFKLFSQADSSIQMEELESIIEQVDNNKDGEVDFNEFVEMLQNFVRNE
AblKD, sequence (P00519 242-493): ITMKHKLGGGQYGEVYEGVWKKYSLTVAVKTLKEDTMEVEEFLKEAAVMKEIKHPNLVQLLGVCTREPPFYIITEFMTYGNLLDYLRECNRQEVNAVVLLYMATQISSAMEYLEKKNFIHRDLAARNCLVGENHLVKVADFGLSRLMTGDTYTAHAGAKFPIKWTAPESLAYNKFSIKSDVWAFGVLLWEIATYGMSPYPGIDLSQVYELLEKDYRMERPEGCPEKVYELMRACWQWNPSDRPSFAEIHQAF

Row | SMILES | Observed HFF Toxicity (T at concentration) [1] | EC50 [2] [nM] | EC50 [3] [nM] | Cell Toxicity SF539, % at 10 μM [4] [% at 10 μM] | solubility [5, 13] [µM] | Cell Toxicity CRL8155, % at 10 μM [6] [% at 10 μM] | Cell Toxicity HCC2998, % at 10 μM [7] [% at 10 μM] | Cell Toxicity HL60, % at 10 μM [8] [% at 10 μM] | IC50 [10] [µM] | other results
1 | CC(C)n1nc(-c2ccc3cc(OCc4ccccc4)ccc3c2)c2c(N)ncnc21 [Compound 40, 3-(6-(benzyloxy)naphthalen-2-yl)-1-isopropyl-1H-pyrazolo[3,4-d]pyrimidin-4-amine] | T at 100 μM | 514 | 96.3 | – | – | – | – | – | – | –
2 | CCCCOc1ccc2cc(-c3nn(CC4CCNCC4)c4ncnc(N)c34)ccc2c1 [Compound 35, 3-(6-butoxynaphthalen-2-yl)-1-(piperidin-4-ylmethyl)-1H-pyrazolo[3,4-d]pyrimidin-4-amine] | 25 to 100 µM | 31.2 | 151 | <30 | 45 (≈ 19.4 µg/mL) | <30 | <30 | <30 | > 10 | IC50 ([9]; Table 8, read-out: IC50 (μM) CpCDPK1): 0.0044 µM
3 | CCCCOc1ccc2cc(-c3nn(C(C)C)c4ncnc(N)c34)ccc2c1 [Compound 42, 3-(6-butoxynaphthalen-2-yl)-1-isopropyl-1H-pyrazolo[3,4-d]pyrimidin-4-amine] | T at 100 μM | 308 | 156 | – | 4.4 (≈ 1.65 µg/mL) | – | – | – | – | AUC [11]: 40.6 µM·h; Cmax [11]: 10.7 µM; Tmax [11]: 2.67 h
4 | CC(C)COc1ccc2cc(-c3nn(CC4CCNCC4)c4ncnc(N)c34)ccc2c1 [Compound 44, 3-(6-isobutoxynaphthalen-2-yl)-1-(piperidin-4-ylmethyl)-1H-pyrazolo[3,4-d]pyrimidin-4-amine] | T at 100 μM | 58.3 | 182 | – | 38 (≈ 16.4 µg/mL) | – | – | – | – | solubility ([5]; aqueous buffer, pH 2.0, read-out: Experimental Solubility pH 2.0): 47 µM (≈ 20.2 µg/mL); solubility ([5]; pH 7.4, aqueous buffer, read-out: Experimental Solubility pH 7.4): 33 µM (≈ 14.2 µg/mL); AUC [11]: 2.47 µM·h; Cmax [11]: 0.95 µM; Tmax [11]: 3 h
5 | CC(C)n1nc(Cc2cccc3ccccc23)c2c(N)ncnc21 [Compound 3, 1-isopropyl-3-(naphthalen-1-ylmethyl)-1H-pyrazolo[3,4-d]pyrimidin-4-amine] | – | – | – | <30 | – | <30 | <30 | <30 | 1.38 | –
6 | Nc1ncnc2c1c(-c1ccc3oc(-c4ccccc4)nc3c1)nn2CC1CCNCC1 [Compound 120] | T at 25 μM | 214 | 25.5 | – | 44 (≈ 18.7 µg/mL) | – | – | – | – | –
7 | CCOc1ccc2cc(-c3nc(C(C)(C)C)n4ccnc(N)c34)ccc2c1 [Compound 69, 3-tert-butyl-1-(6-ethoxynaphthalen-2-yl)imidazo[1,5-a]pyrazin-8-amine] | T at 25 μM | 132 | 198 | – | 3 (≈ 1.08 µg/mL) | <30 | – | <30 | – | –
8 | C=CCOc1ccc2cc(-c3nn(C(C)C)c4ncnc(N)c34)ccc2c1 [Compound 41, 3-(6-(allyloxy)naphthalen-2-yl)-1-isopropyl-1H-pyrazolo[3,4-d]pyrimidin-4-amine] | T at 100 μM | 19.2 | 36.3 | – | 4.4 (≈ 1.58 µg/mL) | <30 | – | <30 | – | AUC [11]: 52.9 µM·h; Cmax [11]: 13.6 µM; Tmax [11]: 1.67 h
9 | Nc1ncnc2c1c(-c1ccc3cc(OCc4cccc(Cl)c4)ccc3c1)nn2CC1CCNCC1 [Compound 38, 3-(6-(3-chlorobenzyloxy)naphthalen-2-yl)-1-(piperidin-4-ylmethyl)-1H-pyrazolo[3,4-d]pyrimidin-4-amien] | T at 100 μM | 34.9 | 45.2 | – | – | <30 | – | <30 | – | Cell Toxicity CRL8155, % at 30 μM ([6]; 30 μM): 98% at 30 μM; Cell Toxicity HL60, % at 30 μM ([8]; 30 μM): 98% at 30 μM
10 | CC(C)(C)n1nc(-c2ccccc2)c2c(N)ncnc21 [Compound 140] | – | 399 | 337 | – | 22 (≈ 5.88 µg/mL) | – | – | – | – | IC50 [12]: 0.636 µM
11 | Nc1ncnc2c1c(-c1ccc3cc(OCc4ccccc4Cl)ccc3c1)nn2CC1CCNCC1 [Compound 37, 3-(6-(2-chlorobenzyloxy)naphthalen-2-yl)-1-(piperidin-4-ylmethyl)-1H-pyrazolo[3,4-d]pyrimidin-4-amine] | T at 100 μM | 71.6 | 95.8 | – | – | – | – | – | – | –
12 | CC(C)Oc1ccc2cc(-c3nn(C(C)C)c4ncnc(N)c34)ccc2c1 [Compound 11, 3-(6-isopropoxynaphthalen-2-yl)-1-isopropyl-1H-pyrazolo[3,4-d]pyrimidin-4-amine] | – | 549 | 373 | <30 | – | <30 | <30 | <30 | 0.541 | –
13 | CCOc1ccc2cc(-c3nn(C(C)C)c4ncnc(N)c34)ccc2c1 [Compound 7r, 3-(6-ethoxynaphthalen-2-yl)-1-isopropyl-1H-pyrazolo[3,4-d]pyrimidin-4-amine] | – | 429 | 1290 | <30 | 12 (≈ 4.17 µg/mL) | <30 | <30 | <30 | 0.218 | IC50 ([9]; read-out: CpCDPK1 IC50): 0.012 µM
14 | CC(C)Oc1ccc2cc(-c3nn(CC4CCNCC4)c4ncnc(N)c34)ccc2c1 [Compound 32, 3-(6-isopropoxynaphthalen-2-yl)-1-(piperidin-4-ylmethyl)-1H-pyrazolo[3,4-d]pyrimidin-4-amine] | – | 55.4 | 365 | – | – | – | – | – | > 10 | –
15 | CCCOc1ccc2cc(-c3nn(CC4CCNCC4)c4ncnc(N)c34)ccc2c1 [Compound 33, 1-(piperidin-4-ylmethyl)-3-(6-propoxynaphthalen-2-yl)-1H-pyrazolo[3,4-d]pyrimidin-4-amine] | T at 100 μM | 21.1 | 196 | <30 | – | <30 | 30 | <30 | > 10 | –
16 | C=CCOc1ccc2cc(-c3nn(CC4CCNCC4)c4ncnc(N)c34)ccc2c1 [Compound 36, 3-(6-(allyloxy)naphthalen-2-yl)-1-(piperidin-4-ylmethyl)-1H-pyrazolo[3,4-d]pyrimidin-4-amine] | T at 100 μM | 15.7 | 146 | <30 | – | <30 | <30 | <30 | > 10 | AUC [11]: 1.83 µM·h; Cmax [11]: 0.59 µM; Tmax [11]: 3.67 h
17 | CCCOc1ccc2cc(-c3nn(C(C)C)c4ncnc(N)c34)ccc2c1 [Compound 12, 1-isopropyl-3-(6-propoxynaphthalen-2-yl)-1H-pyrazolo[3,4-d]pyrimidin-4-amine] | – | 526 | 659 | <30 | – | <30 | <30 | <30 | 0.244 | –
